Data: patent US11370798B2 (Vertex Pharmaceuticals Incorporated, priority 2012, dated 2022)

System: HCT116 colorectal cancer cells
Test: Cisplatin sensitization assay (96 h cell viability MTS);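 also: Test-compound concentration that lowers the Cisplatin IC50 by a set fold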
Format: cell-based
Details: compound and Cisplatin added simultaneously, Cisplatin sensitization value
Procedure, shortened: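 Compound and cisplatin added together as a full matrix of 2-fold serial dilutions from a top final concentration of 10 μM; cells incubated 96 h at 37° C, 5% CO2. Viability then read by MTS after 1 h further incubation; sensitization value reported in μM bins.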

Structure (SMILES) | Cisplatin Sensitization Assay
Nc1nn2cc(F)cnc2c1C(=O)Nc1cnccc1N1CCN2C(=O)CC[C@H]2C1 [I-N-217, (S)-2-amino-6-fluoro-N-(4-(6-oxohexahydropyrrolo[1,2-a]pyrazin-2(1H)-yl)pyridin-3-yl)pyrazolo[1,5-a]pyrimidine-3-carboxamide] | ++ (Cisplatin sensitization value>0.02 μM but <0.2 μM)
CN1CCN(c2ccncc2NC(=O)c2c(N)nn3cc(CC#N)cnc23)CC1 [I-N-82, 2-amino-6-(cyanomethyl)-N-(4-(4-methylpiperazin-1-yl)pyridin-3-yl)pyrazolo[1,5-a]pyrimidine-3-carboxamide] | ++ (Cisplatin sensitization value>0.02 μM but <0.2 μM)
CN1CCN(c2c(F)cncc2NC(=O)c2c(N)nn3cc(F)cnc23)CC1=O [I-N-212, 2-amino-6-fluoro-N-(5-fluoro-4-(4-methyl-3-oxopiperazin-1-yl)pyridin-3-yl)pyrazolo[1,5-a]pyrimidine-3-carboxamide] | +++ (Cisplatin sensitization value of <0.02 μM)
Nc1nn2cc(F)cnc2c1C(=O)Nc1cncc(F)c1N1CCC(C(=O)N2CC(F)C2)CC1 [I-G-67, 2-amino-6-fluoro-N-(5-fluoro-4-(4-(3-fluoroazetidine-1-carbonyl)piperidin-1-yl)pyridin-3-yl)pyrazolo[1,5-a]pyrimidine-3-carboxamide] | +++ (Cisplatin sensitization value of <0.02 μM)
Nc1nn2cc(F)cnc2c1C(=O)Nc1cnccc1-c1cccnc1Cl [I-C-37, 2-amino-N-(2-chloro-[3,4′-bipyridin]-3′-yl)-6-fluoropyrazolo[1,5-a]pyrimidine-3-carboxamide] | +++ (Cisplatin sensitization value of <0.02 μM)
Nc1nn2cc(F)cnc2c1C(=O)Nc1cncc(F)c1N1CCC2(CC1)COC2 [I-N-239, 2-amino-6-fluoro-N-(5-fluoro-4-(2-oxa-7-azaspiro[3.5]nonan-7-yl)pyridin-3-yl)pyrazolo[1,5-a]pyrimidine-3-carboxamide] | +++ (Cisplatin sensitization value of <0.02 μM)
Nc1nn2cc(Cl)cnc2c1C(=O)Nc1cnccc1O[C@@H]1CCOC1 [I-O-54, (R)-2-amino-6-chloro-N-(4-((tetrahydrofuran-3-yl)oxy)pyridin-3-yl)pyrazolo[1,5-a]pyrimidine-3-carboxamide] | +++ (Cisplatin sensitization value of <0.02 μM)
CN(C)CCN(C)C(=O)C1CCN(c2c(F)cncc2NC(=O)c2c(N)nn3cc(F)cnc23)CC1 [I-G-31, 2-amino-N-(4-(4-((2-(dimethylamino)ethyl)(methyl)carbamoyl)piperidin-1-yl)-5-fluoropyridin-3-yl)-6-fluoropyrazolo[1,5-a]pyrimidine-3-carboxamide] | +++ (Cisplatin sensitization value of <0.02 μM)
CNC(=O)C1CCN(c2c(F)cncc2NC(=O)c2c(N)nn3cc(F)cnc23)CC1 [I-G-33, 2-amino-6-fluoro-N-(5-fluoro-4-(4-(methylcarbamoyl)piperidin-1-yl)pyridin-3-yl)pyrazolo[1,5-a]pyrimidine-3-carboxamide] | +++ (Cisplatin sensitization value of <0.02 μM)
Nc1nn2cc(F)cnc2c1C(=O)Nc1cnccc1-n1ccnc1C(F)(F)F [I-N-219, 2-amino-6-fluoro-N-(4-(2-(trifluoromethyl)-1H-imidazol-1-yl)pyridin-3-yl)pyrazolo[1,5-a]pyrimidine-3-carboxamide] | +++ (Cisplatin sensitization value of <0.02 μM)
CN(C)CC(=O)N1CCN(c2c(F)cncc2NC(=O)c2c(N)nn3cc(F)cnc23)CC1 [I-N-153, 2-amino-N-(4-(4-(2-(dimethylamino)acetyl)piperazin-1-yl)-5-fluoropyridin-3-yl)-6-fluoropyrazolo[1,5-a]pyrimidine-3-carboxamide] | ++ (Cisplatin sensitization value>0.02 μM but <0.2 μM)
COC(=O)C1CCN(c2ccncc2NC(=O)c2c(N)nn3cc(Cl)cnc23)CC1 [I-N-74, methyl-1-(3-(2-amino-6-chloropyrazolo[1,5-a]pyrimidine-3-carboxamido)pyridin-4-yl)piperidine-4-carboxylate] | +++ (Cisplatin sensitization value of <0.02 μM)
CN1CCC(C(=O)N2CCC(c3ccncc3NC(=O)c3c(N)nn4cc(F)cnc34)CC2)CC1 [I-C-16, 2-amino-6-fluoro-N-(4-(1-(1-methylpiperidine-4-carbonyl)piperidin-4-yl)pyridin-3-yl)pyrazolo[1,5-a]pyrimidine-3-carboxamide] | + (Cisplatin sensitization value>0.2 μM but <5 μM)
Nc1nn2cc(Cl)cnc2c1C(=O)Nc1cnccc1OC1CNC1 [I-O-73, 2-amino-N-(4-(azetidin-3-yloxy)pyridin-3-yl)-6-chloropyrazolo[1,5-a]pyrimidine-3-carboxamide] | + (Cisplatin sensitization value>0.2 μM but <5 μM)
CN1CCN(c2ccncc2NC(=O)c2c(N)nn3cc(C(C)(C)C#N)cnc23)CC1 [I-N-76, 2-amino-6-(2-cyanopropan-2-yl)-N-(4-(4-methylpiperazin-1-yl)pyridin-3-yl)pyrazolo[1,5-a]pyrimidine-3-carboxamide] | +++ (Cisplatin sensitization value of <0.02 μM)
Cc1cncc(NC(=O)c2c(N)nn3cc(F)cnc23)c1N1CCN(C2CCOCC2)CC1 [I-N-123, 2-amino-6-fluoro-N-(5-methyl-4-(4-(tetrahydro-2H-pyran-4-yl)piperazin-1-yl)pyridin-3-yl)pyrazolo[1,5-a]pyrimidine-3-carboxamide] | ++ (Cisplatin sensitization value>0.02 μM but <0.2 μM)
Cc1nn(C)cc1-c1ccncc1NC(=O)c1c(N)nn2cc(F)cnc12 [I-C-63, 2-amino-N-(4-(1,3-dimethyl-1H-pyrazol-4-yl)pyridin-3-yl)-6-fluoropyrazolo[1,5-a]pyrimidine-3-carboxamide] | +++ (Cisplatin sensitization value of <0.02 μM)
CC1(N2CCN(c3ccncc3NC(=O)c3c(N)nn4cc(F)cnc34)CC2)COC1 [I-N-62, 2-amino-6-fluoro-N-(4-(4-(3-methyloxetan-3-yl)piperazin-1-yl)pyridin-3-yl)pyrazolo[1,5-a]pyrimidine-3-carboxamide] | ++ (Cisplatin sensitization value>0.02 μM but <0.2 μM)
N#CCc1cnc2c(C(=O)Nc3cnccc3N3CCOCC3)c(N)nn2c1 [I-N-81, 2-amino-6-(cyanomethyl)-N-(4-morpholinopyridin-3-yl)pyrazolo[1,5-a]pyrimidine-3-carboxamide] | +++ (Cisplatin sensitization value of <0.02 μM)
CN1CCN(c2ccncc2NC(=O)c2c(N)nn3cc(Cl)cnc23)CC1 [I-N-59, 2-amino-6-chloro-N-(4-(4-methylpiperazin-1-yl)pyridin-3-yl)pyrazolo[1,5-a]pyrimidine-3-carboxamide] | ++ (Cisplatin sensitization value>0.02 μM but <0.2 μM)
CN1CCC(Oc2ccncc2NC(=O)c2c(N)nn3cc(F)cnc23)CC1 [I-O-12, 2-amino-6-fluoro-N-(4-((1-methylpiperidin-4-yl)oxy)pyridin-3-yl)pyrazolo[1,5-a]pyrimidine-3-carboxamide] | +++ (Cisplatin sensitization value of <0.02 μM)
Cc1nc(O[C@@H]2CCN(C)C2)ccc1-c1ccncc1NC(=O)c1c(N)nn2cc(F)cnc12 [I-C-41, (R)-2-amino-6-fluoro-N-(2-methyl-6-((1-methylpyrrolidin-3-yl)oxy)-[3,4′-bipyridin]-3′-yl)pyrazolo[1,5-a]pyrimidine-3-carboxamide] | +++ (Cisplatin sensitization value of <0.02 μM)
N#CCc1cnc2c(C(=O)Nc3cnccc3OC3CCOC3)c(N)nn2c1 (racemic) [I-O-37, (R,S)-2-amino-6-(cyanomethyl)-N-(4-((tetrahydrofuran-3-yl)oxy)pyridin-3-yl)pyrazolo[1,5-a]pyrimidine-3-carboxamide] | +++ (Cisplatin sensitization value of <0.02 μM)
Nc1nn2cc(F)cnc2c1C(=O)Nc1cncc(F)c1N1CCN(C(=O)C2CC3CCCCN3C2)CC1 (centres unmarked) [I-N-203, 2-amino-6-fluoro-N-(5-fluoro-4-(4-(octahydroindolizine-2-carbonyl)piperazin-1-yl)pyridin-3-yl)pyrazolo[1,5-a]pyrimidine-3-carboxamide] | +++ (Cisplatin sensitization value of <0.02 μM)
Nc1nn2cc(Cl)cnc2c1C(=O)Nc1cnccc1N1CCn2cncc2C1 [I-N-75, 2-amino-6-chloro-N-(4-(5,6-dihydroimidazo[1,5-a]pyrazin-7(8H)-yl)pyridin-3-yl)pyrazolo[1,5-a]pyrimidine-3-carboxamide] | +++ (Cisplatin sensitization value of <0.02 μM)
Nc1nn2cc(F)cnc2c1C(=O)Nc1cncc(F)c1N1CCC(c2nccs2)CC1 [I-N-184, 2-amino-6-fluoro-N-(5-fluoro-4-(4-(thiazol-2-yl)piperidin-1-yl)pyridin-3-yl)pyrazolo[1,5-a]pyrimidine-3-carboxamide] | ++ (Cisplatin sensitization value>0.02 μM but <0.2 μM)
Nc1nn2cc(F)cnc2c1C(=O)Nc1cnccc1N1CCC(C(=O)N2CC3(COC3)C2)CC1 [I-G-88, N-(4-(4-(2-oxa-6-azaspiro[3.3]heptane-6-carbonyl)piperidin-1-yl)pyridin-3-yl)-2-amino-6-fluoropyrazolo[1,5-a]pyrimidine-3-carboxamide] | +++ (Cisplatin sensitization value of <0.02 μM)
Nc1nn2cc(F)cnc2c1C(=O)Nc1cncc(F)c1N1CCC(C(=O)N2CCC2)CC1 [I-G-8, 2-amino-N-(4-(4-(azetidine-1-carbonyl)piperidin-1-yl)-5-fluoropyridin-3-yl)-6-fluoropyrazolo[1,5-a]pyrimidine-3-carboxamide] | +++ (Cisplatin sensitization value of <0.02 μM)
Nc1nn2cc(F)cnc2c1C(=O)Nc1cnccc1N1CCS(=O)(=O)CC1 [I-N-210, 2-amino-N-(4-(1,1-dioxidothiomorpholino)pyridin-3-yl)-6-fluoropyrazolo[1,5-a]pyrimidine-3-carboxamide] | +++ (Cisplatin sensitization value of <0.02 μM)
